Experimental data from patent US20090221610A1, “Compositions and Methods for Treating Cognitive Disorders” (Yale University, priority 2006, published 2009).
“Also recorded” adds a separate entry of the source.

Legend:
PFC neurons = experiment: Single neuron recording and iontophoresis in monkeys performing a spatial WM (ODR) task; assay type: in vivo, rhesus monkeys; settings: for Decreased: percent of neurons, spatial delay-related firing / Un-changed: number of neurons, spatial delay-related firing / Un-changed: percent of neurons, spatial delay-related firing / Decreased: number of neurons, spatial delay-related firing / Increased: percent of neurons, spatial delay-related firing / Increased: number of neurons, spatial delay-related firing of PFC neurons / Increased: number of neurons, spatial delay-related firing: iontophoresis; for Increased: number of neurons, spatial delay-related firing of PFC neurons: low dose 5-15 nA (text: ZD7288 10 nA); for Increased: number of neurons, spatial delay-related firing: no dose in table (text: Sp-cAMPS 10 nA, Rp-cAMPS 40-50 nA); for Reversal of the enhancing effects of guanfacine on delay-related activity: co-iontophoresis with guanfacine (yohimbine 15 nA; Sp-cAMPS 10 nA); for Reversal: number of neurons / Reversal: percent of neurons / No Reversal: number of neurons / No Reversal: percent of neurons: co-iontophoresis
Description: Studies were performed on 4 adult male rhesus monkeys trained on the spatial ODR task (FIG. 3). Iontophoretic electrodes, neuronal recording and drug delivery were as described in (Wang et al., 2004) and also are provided in the Supplemental Material. Guanfacine, yohimbine, ZD7288(Tocris, Ellisville, Mo.) and etazolate (Sigma, St. Louis, Mo.) were dissolved at 0.01M in triple-distilled water (adjusted with HCl to pH 3.5-4.0). Sp-cAMP and Rp-cAMP (Sigma) were dissolved at 0.01M in triple-distilled water (adjusted with NaOH to pH 9). Two-way ANOVA was used to examine the spatial tuned task-related activity with regard to: (1) different periods of the task (cue, delay, response vs. fixation) and (2) different cue locations. One-way ANOVAs were employed to assess the effect of the drug application on cells displaying delay-related activity. Monkeys performed an oculomotor spatial delayed response (ODR) task, illustrated in FIG. 3A. The ODR task requires the monkey to make a memory-guided […] to a visuo-spatial target. Stimulus position was randomized over trials to ensure use of WM. Neurons were recorded from area 46 of the dorsolateral PFC (FIG. 3B) as the monkey performed the task. […] In the present study, 128 neurons with delay-related mnemonic activity were isolated and subjected to iontophoretic application of pharmacological agents See Table 1, below summarizing the effects of drugs (Table 1) and their reversal (Table 2) on PFC neuronal response.

rat prefrontal cortex [1] = experiment: Spatial delayed alternation task in a T maze after intra-PFC infusion; assay type: in vivo
rat prefrontal cortex [2] = experiment: as above; assay type: in vivo; remark: listed apart in the source
Description: Rats (n=5) were tested on the spatial delayed alternation task in a T maze, a classical test of prefrontal cortical function in rodents (Larsen and Divac, Physiolog Psychol, 6:15-17, 1978). Rats were trained on the task, and then implanted with cannula aimed at the prelimbic prefrontal cortex as described in (Ramos, et al., Neuron, 40:835-845, 2003). Following recovery from surgery, rats were infused with saline (0.5 μl), the Ih channel blocker ZD7288 (0.0001 μg/0.5 μl), the cAMP analog […]), or a combination of ZD7288 (0.0001 μ[…] (0.21 nmol). There was at least one week washout between drug treatments, and a within subjects comparison was performed (2 way analysis of variance with repeated measures with user defined contrasts). […] Male Sprague Dawley rats (240-260 g; Taconic, Germantown, N.Y.) were trained on the delayed alternation task as described in Ramos et al., 2003. Guide cannula were implanted dorsal in prelimbic PFC (AP: +3.2 mm; ML: ±0.75 mm; DV: -4.2 mm). For infusions, needles reached to 4.5 mm DV; infused at 0.25 μL/min for 2 min. Drug or vehicle was administered in a counterbalanced order with at least 1 week between infusions. […] The experimenter was blind to treatment.

ferret PFC slices = experiment: In vitro extracellular multiple unit and intracellular recording from PFC slices; assay type: cell-based; settings: bath application 20-50 micromolar
Description: Methods for extracellular multiple unit and intracellular recording in ferret PFC slices have been detailed elsewhere (Shu et al., 2003). Slices (0.4 mm) from 2-4 month old ferret PFC were maintained in either an interface or submerged chamber (35-36° C.) in a slice solution containing (in mM): NaCl, 126; KCl, 3.1; MgSO4, 1; NaHPO4, 1.25; CaCl2, 1; NaHCO3, 26; dextrose, 10, and aerated with 95% O2, 5% CO2 to a final pH of 7.4. Simultaneous extracellular multiple unit and intracellular recordings were performed in layer 5 with the electrodes approximately […] of one another. Intracellular micropipettes contained 2 M potassium acetate, while whole cell recording pipettes contained KGluconate 140, KCl 3, MgCl2 2, Na2ATP 2, HEPES 10, and EGTA 0.2. The cellular and network consequences of modulation of HCN channels was examined with intracellular and whole cell recordings from layer 5 pyramidal cells simultaneously with extracellular multiple unit recordings in the ferret PFC in vitro (n=55, see FIG. 6G). Under normal conditions, these slices generate Up and Down states, consisting of repeating periods of recurrent network activity (Shu et al., 2003).

[3] = no dose in table (yohimbine 15 nA, Sp-cAMPS 10 nA, etazolate 25 nA)
[4] = iontophoresis 10 nA, example neuron

| SMILES | Decreased: percent of neurons, spatial delay-related firing (PFC neurons; no dose in table) | Un-changed: number of neurons, spatial delay-related firing (PFC neurons; no dose in table) | Un-changed: percent of neurons, spatial delay-related firing (PFC neurons; no dose in table) [%] | Decreased: number of neurons, spatial delay-related firing (PFC neurons; [3]) | Effect on delay-related firing for the preferred direction (PFC neurons; [4]) | Increased: percent of neurons, spatial delay-related firing (PFC neurons; 5-15 nA) | Un-changed: number of neurons, spatial delay-related firing (PFC neurons; 5-15 nA) | Un-changed: percent of neurons, spatial delay-related firing (PFC neurons; 5-15 nA) [%] | Decreased: percent of neurons, spatial delay-related firing (PFC neurons; 20-50 nA) | Decreased: number of neurons, spatial delay-related firing (PFC neurons; high dose 20-50 nA) | Increased: number of neurons, spatial delay-related firing of PFC neurons (PFC neurons) | Increased: percent of neurons, spatial delay-related firing (PFC neurons; no dose in table) | Increased: number of neurons, spatial delay-related firing (PFC neurons) | Reversal of the enhancing effects of guanfacine on delay-related activity (PFC neurons) | Reversal: number of neurons (PFC neurons; reversal of guanfacine) | Reversal: percent of neurons (PFC neurons; reversal of guanfacine) | other results |
| --- | --- | --- | --- | --- | --- | --- | --- | --- | --- | --- | --- | --- | --- | --- | --- | --- | --- |
| CCOC(=O)c1cnc2c(cnn2CC)c1NN=C(C)C [Etazolate] | (83%) | 2 | 17 | 10 |  |  |  |  |  |  |  |  |  |  |  |  |  |
| NC(N)=NC(=O)Cc1c(Cl)cccc1Cl [Guanfacine, N-(diaminomethylidene)-2-(2,6-dichlorophenyl)acetamide] |  |  |  |  | substantially increased; also recorded: significantly increased | (80%) | 7 | 20 | (100%) | 9 | 28 |  |  |  |  |  | Effect on delay-related firing (PFC neurons; iontophoresis 50 nA, higher dose): did not have enhancing effects; Spatial working memory performance (percent correct, delayed alternation) (rat prefrontal cortex [1]; aged rats (n=9), prefrontal infusion 0.0001 μg): significantly different than saline |
| Nc1ncnc2c1ncn2[C@@H]1O[C@@H]2COP(O)(=S)O[C@H]2[C@H]1O (stereo partly drawn) [Rp-cAMP] |  | 4 | 33 |  |  |  |  |  |  |  |  | (67%) | 8 |  |  |  | Effect on delay-related firing for the preferred direction (PFC neurons; iontophoresis 40-50 nA): specifically increased; Increased: number of neurons, spatial delay-related firing (PFC neurons; listed as Rp-cAMPS): 8 |
| Nc1ncnc2c1ncn2[C@@H]1O[C@@H]2COP(O)(=S)O[C@H]2[C@H]1O (stereo partly drawn) [Sp-cAMP] | (48%) | 5 | 19 | 13 | significantly decreased |  |  |  |  |  |  | (33%) | 9 | significantly reversed | 6 | (67%) | Reversal: number of neurons (PFC neurons; reversal of Rp-cAMP): 6; Reversal: percent of neurons (PFC neurons; reversal of Rp-cAMP): (100%); No Reversal: number of neurons (PFC neurons; reversal of guanfacine): 3; No Reversal: percent of neurons (PFC neurons; reversal of guanfacine): 33%; Increased: number of neurons, spatial delay-related firing (PFC neurons; listed as Sp-cAMPS): 9; Un-changed: number of neurons, spatial delay-related firing (PFC neurons; no dose in table, listed as Sp-cAMPS): 5; Reversal of the enhancing effect of Rp-cAMPS on delay-related firing (PFC neurons; subsequent co-iontophoresis with Rp-cAMPS): reversed; Effect of co-infusion on the guanfacine effects on working memory (rat prefrontal cortex [1]; aged rats, co-infusion with guanfacine): reversed; Effect of co-infusion on the ZD7288 improvement of working memory (rat prefrontal cortex [2]; co-infusion 0.21 nmol with ZD7288 0.0001 μg, listed as Sp-cAMPS): significantly reversed; also recorded: blocked; also recorded: significantly reduced; Spatial working memory performance compared to saline (rat prefrontal cortex [2]; intra-PFC infusion 0.21 nmol/0.5 μl alone): no effect on its own |
| COC(=O)[C@@H]1[C@H]2C[C@H]3c4[nH]c5ccccc5c4CCN3C[C@@H]2CC[C@@H]1O [Yohimbine] | (100%) |  |  | 15 |  |  |  |  |  |  |  |  |  | reversed | 6 | (100%) | Effect on delay-related activity for the preferred direction (PFC neurons; iontophoresis 15 nA): dramatically suppressed |
| CCN(c1ccccc1)c1cc(NC)[n+](C)c(C)n1.[Cl-] [ZD7288] |  |  |  |  | further enhanced | (70%) | 8 | 30 | (100%) | 10 | 19 |  |  |  |  |  | Reversal of the reduction in delay-related firing induced by etazolate (PFC neurons; co-iontophoresis with etazolate): fully reversed; Reversal of the yohimbine suppression of delay-related activity (PFC neurons; co-iontophoresis with yohimbine (15 nA)): significantly reversed; No Reversal: number of neurons (PFC neurons; reversal of etazolate): 2; No Reversal: percent of neurons (PFC neurons; reversal of etazolate): 25%; Reversal: number of neurons (PFC neurons; reversal of etazolate): 6; Reversal: percent of neurons (PFC neurons; reversal of etazolate): (75%); No Reversal: number of neurons (PFC neurons; reversal of yohimbine): 2; No Reversal: percent of neurons (PFC neurons; reversal of yohimbine): 31%; Reversal: number of neurons (PFC neurons; reversal of yohimbine): 7; Reversal: percent of neurons (PFC neurons; reversal of yohimbine): (71%); Reversal: number of neurons (PFC neurons; reversal of yohimbine, listed as ZD 7288): 5; Effect on delay-related firing for the preferred direction (PFC neurons; iontophoresis 5 nA, example neuron): significantly increased; Effect on delay-related firing (PFC neurons; iontophoresis 40 nA, highest concentration): decreased rather than increased firing; Spatial working memory performance (percent correct, delayed alternation) compared to saline (rat prefrontal cortex [2]; intra-PFC infusion 0.0001 μg/0.5 μl, n=5): significantly improved; Number of action potentials generated by a depolarizing current pulse (ferret PFC slices): increase; Up-state action potential discharge (ferret PFC slices; from 1.8±1.7 Hz, n=9): 9.2±4.9 Hz; Apparent input resistance (ferret PFC slices; from 18.6±7.5, n=10): 36±10.8 Mohms; Duration of the recurrent network activity of the Up state (ferret PFC slices; from an average of 0.84 (±0.25) before): 4.1 (±1.3) sec; Increase in duration of the recurrent network activity of the Up state (ferret PFC slices; n=10): ~500%; Membrane potential of layer 5 pyramidal neurons (ferret PFC slices; n=12): progressive hyperpolarization |
